{"source": "patent US20080318931A1", "about": "“Treatment of Disorders and Diseases of the Colon” (priority 2004, published 2008)", "key": {"[1]": {"system": "Human Colon carcinoma (HT29) cell-line", "experiment": "Viability of human colon carcinoma HT29 cells, alamar blue and neutral red", "format": "cell-based", "conditions": "for cell viability / responsiveness of HT29 cells: FIG. 13; for inhibition of cell viability: 10-30 μM, FIG. 14", "procedure": "Human Colon carcinoma (HT29) cell-line (ATCC USA) was maintained in RPMI medium supplemented with 10% fetal calf serum and penicillin (100 u/ml), streptomycin (100 mcg/ml), nystatin (12.5 u/ml), L-glutamine (2 mM). Confluent cultures were washed with phosphate-buffered saline (PBS), detached with trypsine (0.25%), centrifuged, and subcultured in 96-well microtiter test plates. Cells were exposed to vehicle or to psychotropic drugs. Cell viability was measured 24 hours later using the alamar blue and neutral red methods. Results were expressed as % of controls (vehicle treated cells). Each sample is the Mean+/−[…] of 4 determinations."}, "[2]": {"system": "ConA-induced mouse splenocytes", "experiment": "Con-A-induced mouse splenocyte proliferation/viability, alamar blue", "format": "cell-based", "conditions": "for cytotoxicity at 20 µM: Mus musculus, Splenocyte, read-out: inhibition of cell viability; for ConA (mitogen)-induced splenocyte proliferation: 2.5-10 μM, alamar blue", "procedure": "(§1) Mouse splenocytes were isolated from C57b1 healthy female mice. Cells (10,000/well) were tested under basal and ConA stimulation. Cells were treated with vehicle, dexamethasone or antidepressants (2.5-10 μM). Viability was assessed 48 hr later using alamar blue staining. (Reagents were manufactured by Wildflower, Santa Fe, N. Mex., USA.) Alamar blue assay was performed as in Nociari et al (1998).\n(§2) Effect of paroxetine, (SSRI) and clomipramine (TCA) as compared to dexamethasone on Con-A-induced splenocyte proliferation (alamar blue method), and splenocyte-induced secretion of TH1 cytokines TNF-α, IL2 and INFγ, 1×10^6 cells/well, was measured 48 hours after exposure to drugs (2.5-10 μM).\nIn particular, mouse splenocytes were isolated from C57BL healthy female mice. Cells (10,000/well) were then exposed to Con-A (5 μM) and treated with either the vehicle, with dexamethasone or with a drug (2.5-10 μM).\nCell viability was assessed 48 hr later using Alamar blue staining. The results are presented in FIG. 4, where each point is the graph represents the mean of 4 determinations. […]. The IC50 determined for the antidepressant drugs was in the range of 2.5-5.5 μM.\nCells were treated with vehicle, or the antidepressants (2.5-20 μM). Viability was assessed 48 hours later using alamar blue staining. (Each point is the mean+/−SEM of 4 determinations)."}, "[3]": {"system": "splenocytes derived from treated mice", "experiment": "ConA/basal proliferation ratio of splenocytes from mice treated in vivo for 7 days", "set-up": "species or system mouse", "conditions": "paroxetine 7.5, clomipramine 15 mg/kg x3/week i.p., Con A 5 μM in vitro", "procedure": "Paroxetine or clomipramine were administered at 7.5 and 15 mg/kg x3/week i.p, respectively. Splenocytes were derived from treated animals.\nEach group represents the mean of a pool of 5 animals."}, "[4]": {"system": "mouse splenocytes (basal)", "experiment": "Basal mouse splenocyte viability, alamar blue", "format": "cell-based", "conditions": "2.5-10 μM, 48 hr", "procedure": "as §1"}, "[5]": {"system": "TH1 cytokines TNF-α, IL2 and INFγ", "experiment": "TH1 cytokine secretion (TNF-α, IL2, INFγ) from Con-A-induced splenocytes, ELISA", "format": "cell-based, mouse", "conditions": "2.5-10 μM, 48 hours, 1×10^6 cells/well", "procedure": "as §2\nCytokines were determined in the supernatant of the splenocyte specimens using an ELISA kit and protocol (Reagents by Cytolab). […] The pattern observed resembles that of dexamethasone."}, "human PBMC": {"system": "human PBMC", "experiment": "Viability of LPS-exposed human PBMC, alamar blue", "format": "cell-based", "conditions": "LPS 2 ug/well, 2.5-30 μM, 48 hours, both subjects", "protocol": "Human PBMC were isolated from whole blood of 2 healthy volunteers (A and B subjects). Cells (2×10^6/ml) were exposed to LPS (2 ug/well) and treated with either the vehicle, or with paroxetine, sertraline, clomipramine and trifluoperazine (2.5-30 μM)."}, "[6]": {"system": "Con-A activated splenocytes", "experiment": "cells", "conditions": "Mus musculus, Splenocyte, read-out: inhibition of viability, splenocytes from naïve animals", "protocol": "(§4) LPS (manufactured by Sigma St. Louis Mo., USA, cat no L2880) was administered at 100 μg/mouse×2, on day 7 and day 14)."}, "INF-γ": {"system": "INF-γ", "experiment": "INF-γ secretion from Con-A activated mouse splenocytes, ELISA", "format": "cell-based", "conditions": "Splenocyte; for inhibition at 10 µM: read-out: maximal inhibition of INF-γ", "procedure": "INF-γ was determined in the supernatant of the splenocyte specimens using ELISA kit and protocol (Manufactured by Cytolab)."}, "[7]": {"conditions": "chitosan capsules, colon targeting technology; cited from earlier work"}, "bcl-2": {"system": "bcl-2", "experiment": "bcl-2 expression in HT29 cells, western blot", "format": "cell-based, human", "conditions": "10 and 20 μM, 24 hr", "procedure": "(§3) The effect of paroxetine and sertraline on the expression of bcl-2 and C-jun was evaluated in human colon HT29 cell-line 24 hr after drug administration, using western blot analysis for C-jun and bcl-2 and specific antibodies."}, "Cyclooxygenase-2 (Cox-2)": {"system": "Cyclooxygenase-2 (Cox-2)", "experiment": "Cox-2 expression in ConA stimulated mouse splenocytes, Western blot", "format": "cell-based", "conditions": "5 μM, normalized to actin", "procedure": "Determination was performed using Western blot analysis and quantitative dencitometry of blot.\nFor each sample 2×10^7 cells were used. Cells were lysed, and equal amounts of protein was fractionated on polyacrylamide gel and then transferred to PVDF membrane. The amount of the protein was detected by immuno-blotting with […] anti-Cox-2 anti body (Murine anti COX2 Polyclonal Cat. 160126, Ann Arbor, Mich., USA. 2nd antibody conjugated to horseradish peroxidase was used and visualized with chemiluminescent Kit (Pierce, Rockford, Ill., USA) on film. Quantification of blot was performed using a densitometry apparatus (VersaDoc™ imaging system, BioRad, USA) and levels were normalized to actin."}, "[8]": {"system": "HT29 human colon cancer tumor", "experiment": "HT29 human colon cancer tumor growth in nude mice", "format": "in vivo, mouse", "conditions": "20 mg/kg s.c ×3/week, after 3 courses", "procedure": "The in-vivo anti tumor activity of active antidepressants was assessed in animal model of cancer. Five Nude mice (males, 6 weeks of age) were inoculated with HT29 cells (4,000,000/100 μL) by subcutaneous (s.c.) administration. […] Sertraline therapy was initiated on the 7th day after cell grafting. 3 animals were treated with sertraline (20 mg/kg s.c×3/week) near the cancerous area and 2 animals served as controls."}, "C-jun": {"system": "C-jun", "experiment": "C-jun expression in HT29 cells, western blot", "format": "cell-based, human", "conditions": "10 and 20 μM, 24 hr", "procedure": "as §3"}, "[9]": {"system": "Con-A activated splenocytes", "conditions": "5 μM", "protocol": "as §4"}}, "note": "Entries after “also recorded” stand apart in the source; their conditions may differ.", "data": [{"smiles": "O=c1[nH]cc(F)c(=O)[nH]1", "note": "[5FU, 5fluoro uracil]", "values": [{"measurement": "cell viability / responsiveness of HT29 cells", "setting": "[1]; 24 hours", "result": "resistance"}]}, {"smiles": "CN(C)CCC=C1c2ccccc2CCc2ccccc21", "note": "[amitriptyline]", "values": [{"measurement": "maximal inhibition of cell viability", "setting": "[2]; 2.5-20 μM, 48 hours", "result": 80.7, "unit": "%"}]}, {"smiles": "CN(C)CCCC1(c2ccc(F)cc2)OCc2cc(C#N)ccc21", "note": "(stereo not drawn) [citalopram]", "values": [{"measurement": "cytotoxicity at 20 µM", "setting": "[2]; 48 hours", "result": 49, "unit": "%"}]}, {"smiles": "CN(C)CCCN1c2ccccc2CCc2ccc(Cl)cc21", "note": "[clomipramine]", "values": [{"measurement": "capacity to respond to Con-A (ratio ConA/basal) vs vehicle treated mice", "setting": "[3]", "result": "lower capacity to respond to exogenous stimulus of Con-A"}, {"measurement": "basal splenocyte proliferation", "setting": "[4]", "result": "dose dependent decrease"}, {"measurement": "lymphocyte-induced pro-inflammatory cytokine secretion", "setting": "[5]", "result": "decrease"}, {"measurement": "order of potency, decrease in cell viability", "setting": "human PBMC", "result": "sertraline>paroxetine>trifluoperazine>/=clomipramine"}, {"measurement": "ConA (mitogen)-induced splenocyte proliferation", "setting": "[2]; 48 hr", "result": "dose dependent decrease; also recorded: dose-dependent decrease"}, {"measurement": "inhibition of cell viability", "setting": "[1]", "result": 38, "unit": "%"}]}, {"smiles": "C[C@@H]1C[C@H]2[C@@H]3CCC4=CC(=O)C=C[C@]4(C)[C@@]3(F)[C@@H](O)C[C@]2(C)[C@@]1(O)C(=O)CO", "note": "[dexamethasone]", "values": [{"measurement": "cytotoxicity at 5 µM", "setting": "[6]", "result": 60, "unit": "%"}, {"measurement": "inhibition at 2.5 µM", "setting": "INF-γ; 2.5 μM", "result": 83, "unit": "%"}]}, {"smiles": "CN(C)CCC=C1c2ccccc2COc2ccccc21", "note": "[doxepine]", "values": [{"measurement": "cytotoxicity at 20 µM", "setting": "[2]; 48 hours", "result": 38, "unit": "%"}]}, {"smiles": "COc1cccc2c1C(=O)c1c(O)c3c(c(O)c1C2=O)C[C@@](O)(C(=O)CO)C[C@@H]3O[C@H]1C[C@H](N)[C@H](O)[C@H](C)O1", "note": "[doxorubicin]", "values": [{"measurement": "cell viability / responsiveness of HT29 cells", "setting": "[1]; 24 hours", "result": "only partial responsiveness"}]}, {"smiles": "OCCN1CCN(CCCN2c3ccccc3Sc3ccc(C(F)(F)F)cc32)CC1", "note": "[fluphenazine]", "values": [{"measurement": "cell viability / responsiveness of HT29 cells", "setting": "[1]; 24 hours", "result": "dose dependent decrease"}]}, {"smiles": "COCCCC/C(=N\\OCCN)c1ccc(C(F)(F)F)cc1", "note": "[fluvoxamine]", "values": [{"measurement": "inhibition at 10 µM", "setting": "INF-γ", "result": 51, "unit": "%"}]}, {"smiles": "Nc1ccc(O)c(C(=O)O)c1", "note": "[mesalamine]", "values": [{"measurement": "decrease in systemic exposure", "setting": "[7]", "result": 50, "unit": "%"}]}, {"smiles": "OCCN1CCN(CCCN2c3ccccc3Sc3ccc(Cl)cc32)CC1", "note": "[perphenazine]", "values": [{"measurement": "cell viability / responsiveness of HT29 cells", "setting": "[1]; 24 hours", "result": "dose dependent decrease"}]}, {"smiles": "CN[C@H]1CC[C@@H](c2ccc(Cl)c(Cl)c2)c2ccccc21", "note": "[sertraline]", "values": [{"measurement": "expression of bcl-2", "setting": "bcl-2", "result": "inhibition"}, {"measurement": "reduction of Cox-2 expression", "setting": "Cyclooxygenase-2 (Cox-2)", "result": 24.3, "unit": "%"}, {"measurement": "tumor growth vs untreated controls (1 animal)", "setting": "[8]", "result": "prevention of tumor growth"}, {"measurement": "tumor growth vs untreated controls (2 other animals)", "setting": "[8]", "result": "decrease in tumor growth"}, {"measurement": "cytotoxicity at 5 µM", "setting": "[6]", "result": 40, "unit": "%"}, {"measurement": "order of potency, decrease in cell viability", "setting": "human PBMC", "result": "sertraline>paroxetine>trifluoperazine>/=clomipramine"}, {"measurement": "ConA (mitogen)-induced splenocyte proliferation", "setting": "[2]; 48 hr", "result": "dose-dependent decrease"}, {"measurement": "cell viability compared to dexamethasone", "setting": "[2]; Con-A 5 μM, drug 2.5-10 μM, 48 hr", "result": "decreased cell viability to the same extent as compared to dexamethasone"}, {"measurement": "expression of C-jun", "setting": "C-jun", "result": "stimulation"}, {"measurement": "inhibition of cell viability", "setting": "[1]", "result": "up to 75%"}, {"measurement": "response of splenocytes from LPS mice treated in vivo with sertraline", "setting": "[9]; LPS mice + sertraline 5 mg/kg×3/week two weeks", "result": "more responsive"}, {"measurement": "response of splenocytes from LPS mice", "setting": "[9]; LPS-treated mice", "result": "in a manner similar to the naive animals"}]}, {"smiles": "CSc1ccc2c(c1)N(CCC1CCCCN1C)c1ccccc1S2", "note": "(stereo not drawn) [thioridazine]", "values": [{"measurement": "cell viability / responsiveness of HT29 cells", "setting": "[1]; 24 hours", "result": "dose dependent decrease"}, {"measurement": "cytotoxicity at 20 µM", "setting": "[1]; Homo sapiens, HT-29, 20 μM, 24 hours, read-out: inhibition of cell viability", "result": 85, "unit": "%"}]}, {"smiles": "CN1CCN(CCCN2c3ccccc3Sc3ccc(C(F)(F)F)cc32)CC1", "note": "[trifluoperazine]", "values": [{"measurement": "order of potency, decrease in cell viability", "setting": "human PBMC", "result": "sertraline>paroxetine>trifluoperazine>/=clomipramine"}]}, {"smiles": "COc1ccc(C(CN(C)C)C2(O)CCCCC2)cc1", "note": "(stereo not drawn) [venlafaxine]", "values": [{"measurement": "inhibition at 10 µM", "setting": "INF-γ", "result": 16, "unit": "%"}]}]}
